Measured values published in patent US10766914B2, “DNA alkylating agents” (OBI PHARMA, INC., priority 2015, dated 2020).

Test system: not listed separately
Assay: Example 4-D body weight change and lethal toxicity, A549 xenograft study
Assay type: in vivo, female nude mice (nu/nu)
Conditions: 5 mg/kg IP QD × 5
Experimental: Cells were mixed with Matrigel (50% with exception for 30% in the H460) and 0.2 ml per mouse were subcutaneously implanted to the flank area of the animals. When tumor size reached 100-150 250 mm3, mice were randomized into experimental or vehicle groups with 10 mice/group and treatment was started (Day 1). The tested compounds were formulated in 5% DMSO in D5W. The regimens employed in the examples include IP, QD×5/wk (5 days on, 2 days off) as one cycle, for a total of 2 cycles; IP, once; IP, weekly for total 3 weeks; and IV, weekly for 3 weeks. Tumor growth and body weight were measured twice a week. Tumor volume was calculated as (length×width2)/2. Drug efficacy was assessed as Tumor Growth Inhibition (TGI) and Tumor Growth Delay (TGD). TGI was defined as (1−ΔT/ΔC)×100, where ΔT/ΔC presented the ratio of the change in mean (or median, if variation within the group was relatively large) tumor volume of the treated group and of the control group. TGD was calculated as the extra days for the treated tumor to reach 500 mm3 or 1000 mm3 as compared to the control group. Animals were culled when individual tumor size reached over 2000 mm3 or mean tumor volume exceeded 1000 mm3 in the group. Data are expressed as the mean±SEM. One-way analysis of variance with Dunnett post comparison test (GraphPad Prism 4) or two-tailed student's t-test were used for analysis. A P level <0.05 was considered statistically significant.
The compounds were tested in another A549 model. The compounds were dosed as follows. Daily IP dosing: 5 doses then 2 days off then 5 more doses starting at 100 mm^3 tumors on day 1 (10 animals per group average tumor volume). The antitumor effects and the safety of administration are graphically illustrated below.

SMILES | Max. BW loss % [%]
Cc1nc2ccc(Oc3cc(COP(=O)(N4CC4)N4CC4)ccc3[N+](=O)[O-])cc2s1 [Compound 2931] | 25.0

Same assay, conditions: 5 mg/kg IP QD × 5, 10 animals per group

SMILES | Lethal Tox
Cc1nc2ccc(Oc3cc(COP(=O)(N4CC4)N4CC4)ccc3[N+](=O)[O-])cc2s1 [Compound 2931] | 10

Test system: not listed separately
Assay: Pharmacokinetics in CD-1 mice following a single intraperitoneal dose (parent and TH2660)
Conditions: mouse, in vivo, ip, parent compound
Experimental: The pharmacokinetics of TH2873, TH2883, TH2888, TH2890, TH2901 and TH2926 were determined in CD-1 mice following a single intraperitoneal dose.
The pharmacokinetics of TH2660, the active metabolite, following a single intraperitoneal dose of TH2873, TH2883, TH2888, TH2890, TH2901 and TH2926 are shown below.

SMILES | AUC [ng·h/mL] | Cmax [ng/mL] | Tmax [min] | half-life [min]
O=[N+]([O-])c1ccc(COP(=O)(N2CC2)N2CC2)cc1Oc1ccc2ncsc2c1 [Compound 2901] | 2580 | 5120 | 5 | 12.1
CC(OP(=O)(N1CC1)N1CC1)c1ccc([N+](=O)[O-])c(Oc2ccc(NS(=O)(=O)CCl)cc2)c1 (stereo not shown) [Compound 2926] | 9650 | 8340 | 15 | 34.2

Test system: H460 cells
Assay: Proliferation assay in H460 cells (2 hr exposure, AlamarBlue)
Assay type: cell-based, human
Conditions: Homo sapiens, NCI-H460, 2 hrs exposure, wash, 70 hrs growth, read-out: IC 50 in proliferation assay in H460 cells
Experimental: In vitro proliferation data on the H460 […] human tumor cell line is reported above in the compound table.
Specifically, exponentially growing cells were seeded at a density of 4×10^3 cells per well in a 96 well plate and incubated at 37° C. in 5% CO2, 95% air and 100% relative humidity for 24 hours prior to addition of test compounds. Compounds were solubilized in 100% DMSO at 200 times the desired final test concentration. At the time of drug addition, compounds were further diluted to 4 times the desired final concentration with complete medium. Aliquots of 50 μl of compound at specified concentrations were added to microtiter wells already containing 150 μl of medium, resulting in the final drug concentration reported. After drug addition, the plates were incubated for an additional 2 hours at 37° C., 5% CO2, 95% air, and 100% relative humidity, then the drug was washed off and fresh medium was added and the plates were incubated for addition 70 hrs at 37° C., 5% CO2, 95% air and 100% relative humidity. At the end of this incubation, the viable cells were quantified using the AlamarBlue assay. The drug concentration resulting in growth inhibition of 50% (IC50) was calculated using Prism software (Irvine, Calif.), and the results were listed in the table.

SMILES | IC50 [nM]
O=[N+]([O-])c1ccc(COP(=O)(N2CC2)N2CC2)cc1Oc1ccc2ncsc2c1 [Compound 2901] | 3
CC(OP(=O)(N1CC1)N1CC1)c1ccc([N+](=O)[O-])c(Oc2ccc(NS(=O)(=O)CCl)cc2)c1 (stereo not shown) [Compound 2926] | 20
Cc1nc2ccc(Oc3cc(COP(=O)(N4CC4)N4CC4)ccc3[N+](=O)[O-])cc2s1 [Compound 2931] | 1
CC(OP(=O)(N1CC1)N1CC1)c1ccc([N+](=O)[O-])c(Oc2nccs2)c1 (stereo not shown) [Compound 2944] | > 5000
CC(OP(=O)(N1CC1)N1CC1)c1ccc([N+](=O)[O-])c(Oc2cccc3cnccc23)c1 (stereo not shown) [Compound 2945] | 50
CS(=O)(=O)Nc1ccc(Oc2cc(COP(=O)(N3CC3)N3CC3)ccc2[N+](=O)[O-])cc1 [Compound 2946] | 30
CC(OP(=O)(N1CC1)N1CC1)c1ccc([N+](=O)[O-])c(O/N=C(\C#N)c2ccccc2)c1 (stereo not shown) [Compound 2947] | 200
N#C/C(=N\Oc1cc(COP(=O)(N2CC2)N2CC2)ccc1[N+](=O)[O-])c1ccccc1 [Compound 2948] | 40
C/C(=N\Oc1cc(COP(=O)(N2CC2)N2CC2)ccc1[N+](=O)[O-])c1ccccc1 [Compound 2949] | 400
CC(OP(=O)(N1CC1)N1CC1)c1ccc([N+](=O)[O-])c(Oc2cccc(S(C)(=O)=O)c2)c1 (stereo not shown) [Compound 2950] | 40
CS(=O)(=O)c1cccc(Oc2cc(COP(=O)(N3CC3)N3CC3)ccc2[N+](=O)[O-])c1 [Compound 2951] | 20
CC(OP(=O)(N1CC1)N1CC1)c1ccc([N+](=O)[O-])c(Oc2cccc3ccccc23)c1 (stereo not shown) [Compound 2954] | 100
CC(OP(=O)(N1CC1)N1CC1)c1ccc([N+](=O)[O-])c(Oc2cnc3ccccc3c2)c1 (stereo not shown) [Compound 2956] | 4
CC(OP(=O)(N1CC1)N1CC1)c1ccc([N+](=O)[O-])c(Oc2ccc3cccnc3c2)c1 (stereo not shown) [Compound 2957] | 40
O=[N+]([O-])c1ccc(COP(=O)(N2CC2)N2CC2)c(Oc2ccccc2)c1 [Compound 2960] | 1600
C/C(=N\Oc1cc(C(C)OP(=O)(N2CC2)N2CC2)ccc1[N+](=O)[O-])c1ccccc1 (stereo not shown) [Compound 2961] | 2700
O=[N+]([O-])c1ccc(COP(=O)(N2CC2)N2CC2)cc1Oc1cccc2ccccc12 [Compound 2966] | 200
O=[N+]([O-])c1ccc(COP(=O)(N2CC2)N2CC2)cc1Oc1cccc2ncccc12 [Compound 2967] | 100
O=[N+]([O-])c1ccc(COP(=O)(N2CC2)N2CC2)cc1Oc1ccc2ccccc2c1 [Compound 2968] | 4
O=[N+]([O-])c1ccc(COP(=O)(N2CC2)N2CC2)cc1Oc1cnc2ccccc2c1 [Compound 2969] | 2
O=[N+]([O-])c1ccc(COP(=O)(N2CC2)N2CC2)cc1Oc1ccc2cccnc2c1 [Compound 2970] | 40
O=[N+]([O-])c1ccc(COP(=O)(N2CC2)N2CC2)cc1Oc1ccc2ncccc2c1 [Compound 2971] | 3
CC(OP(=O)(N1CC1)N1CC1)c1ccc([N+](=O)[O-])c(Oc2cccc(C(=O)N3CCOCC3)c2)c1 (stereo not shown) [Compound 2972] | 10
O=C(c1cccc(Oc2cc(COP(=O)(N3CC3)N3CC3)ccc2[N+](=O)[O-])c1)N1CCOCC1 [Compound 2973] | 20

SMILES | IC50 [nM]
CN(C(=O)c1ccc(Oc2cc(COP(=O)(N3CC3)N3CC3)ccc2[N+](=O)[O-])cc1)c1ccccc1 [Compound 2974] | 1
CC(OP(=O)(N1CC1)N1CC1)c1ccc([N+](=O)[O-])c(Oc2ccc(C(=O)N(C)c3ccccc3)cc2)c1 (stereo not shown) [Compound 2978] | 2
CC(OP(=O)(N1CC1)N1CC1)c1ccc([N+](=O)[O-])c(Oc2ccccc2S(C)(=O)=O)c1 (stereo not shown) [Compound 2980] | 3000
CS(=O)(=O)c1ccccc1Oc1cc(COP(=O)(N2CC2)N2CC2)ccc1[N+](=O)[O-] [Compound 2981] | 3700
CC(OP(=O)(N1CC1)N1CC1)c1ccc([N+](=O)[O-])c(Oc2cccc(C(=O)N3CCCCC3)c2)c1 (stereo not shown) [Compound 2982] | 4
O=C(c1cccc(Oc2cc(COP(=O)(N3CC3)N3CC3)ccc2[N+](=O)[O-])c1)N1CCCCC1 [Compound 2983] | 4
CC(OP(=O)(N1CC1)N1CC1)c1ccc([N+](=O)[O-])c(Oc2cccc(C(=O)N3CCCC3)c2)c1 (stereo not shown) [Compound 2984] | 5
CCN(CC)C(=O)c1cccc(Oc2cc(C(C)OP(=O)(N3CC3)N3CC3)ccc2[N+](=O)[O-])c1 (stereo not shown) [Compound 2985] | 4
CC(OP(=O)(N1CC1)N1CC1)c1ccc([N+](=O)[O-])c(Oc2cccc(-c3ccccc3)c2)c1 (stereo not shown) [Compound 2991] | 6
CC(OP(=O)(N1CC1)N1CC1)c1ccc([N+](=O)[O-])c(Oc2cccc(C(=O)N(C)c3ccccc3)c2)c1 (stereo not shown) [Compound 2992] | 4
CC(OP(=O)(N1CC1)N1CC1)c1ccc([N+](=O)[O-])c(Oc2cccc(C(=O)N3CCS(=O)(=O)CC3)c2)c1 (stereo not shown) [Compound 2993] | 20
CC(OP(=O)(N1CC1)N1CC1)c1ccc([N+](=O)[O-])c(Oc2ccccc2-c2ccccc2)c1 (stereo not shown) [Compound 3028] | 700
O=[N+]([O-])c1ccc(COP(=O)(N2CC2)N2CC2)cc1Oc1ccccc1-c1ccccc1 [Compound 3029] | 600
Cc1ccc(Oc2cc(C(C)OP(=O)(N3CC3)N3CC3)ccc2[N+](=O)[O-])cc1 (stereo not shown) [Compound 3030] | 20
Cc1ccc(Oc2cc(COP(=O)(N3CC3)N3CC3)ccc2[N+](=O)[O-])cc1 [Compound 3031] | 10
Cc1ccccc1-c1ccc(Oc2cc(C(C)OP(=O)(N3CC3)N3CC3)ccc2[N+](=O)[O-])cc1 (stereo not shown) [Compound 3032] | 3
Cc1ccccc1-c1ccc(Oc2cc(COP(=O)(N3CC3)N3CC3)ccc2[N+](=O)[O-])cc1 [Compound 3033] | 1
CC(OP(=O)(N1CC1)N1CC1)c1ccc([N+](=O)[O-])c(Oc2ccc(C(C)(C)C)cc2)c1 (stereo not shown) [Compound 3034] | 8
CC(C)(C)c1ccc(Oc2cc(COP(=O)(N3CC3)N3CC3)ccc2[N+](=O)[O-])cc1 [Compound 3035] | 1
CC(OP(=O)(N1CC1)N1CC1)c1ccc([N+](=O)[O-])c(Oc2ccc(C(F)(F)F)cc2)c1 (stereo not shown) [Compound 3036] | 4
O=[N+]([O-])c1ccc(COP(=O)(N2CC2)N2CC2)cc1Oc1ccc(C(F)(F)F)cc1 [Compound 3037] | 1
CC(OP(=O)(N1CC1)N1CC1)c1ccc([N+](=O)[O-])c(Oc2ccc(-c3ccc(Cl)cc3)cc2)c1 (stereo not shown) [Compound 3041] | 50
CC(OP(=O)(N1CC1)N1CC1)c1ccc([N+](=O)[O-])c(Oc2ccc(-c3ccc(F)cc3)cc2)c1 (stereo not shown) [Compound 3042] | 5
O=[N+]([O-])c1ccc(COP(=O)(N2CC2)N2CC2)cc1Oc1ccc(-c2ccncc2)cc1 [Compound 3050] | 10
